These are literature values, as cited in patent US20210198628A1, “BASAL MEDIA FOR GROWING NK-92 CELLS” (NantKwest, Inc., priority 2018, published 2021).

Molecules are shown by their SMILES.

The conditions of the data set: in vivo.

With `CC[C@H](C(=O)N1CCCC[C@H]1C(=O)O[C@H](CCc1ccc(OC)c(OC)c1)c1cccc(OCC(=O)NCCNC(=O)COc2cccc([C@@H](CCc3ccc(OC)c(OC)c3)OC(=O)[C@@H]3CCCCN3C(=O)[C@@H](CC)c3cc(OC)c(OC)c(OC)c3)c2)c1)c1cc(OC)c(OC)c(OC)c1` [AP1903], the “tolerability in clinical studies” value is recorded as “well tolerated”.
